Reference: ChEMBL document CHEMBL5506050, “Discovery of Oral AMP-Activated Protein Kinase Activators for Treating Hyperlipidemia” (J Med Chem, 2024)
Activity calls are given as the source filed them. The rule behind the calls is not given here.

Assays:
[1] = target: AMP-activated protein kinase (AMPK) alpha-1/beta-1/gamma-1 (Homo sapiens) (UniProt P54619+Q9Y478+Q13131); assay: Activation of AMPK alpha1/AMPKbeta1/AMPKgamma1 (unknown origin) using SAMS peptide as substrate at; type: protein-complex assay; conditions: filed as activator, dose < 70.3 µM, time 20.0 min
[2] = tested on: Mus musculus; assay: Lipid lowering effect on high-fat diet-fed C57BL/6J mouse assessed as decrease in serum LDL-C level at 20 mg/kg/day, po administered via gavage measured after 7 days relative to control; type: functional; parameters: scale not given: the % may be the effect or the level left; conditions: time 7 day
[3] = tested on: Mus musculus; assay: Lipid lowering effect on high-fat diet-fed C57BL/6J mouse assessed as decrease in serum LDL-C level at 40 mg/kg/day, po administered via gavage measured after 7 days relative to control; type: functional; parameters: scale not given: the % may be the effect or the level left; conditions: time 7 day
[4] = tested on: Syrian golden hamster; assay: Lipid lowering effect on high-fat diet-fed golden hamster assessed as decrease in serum TC level at 6 mg/kg, po qd administered via gavage measured after 4 weeks relative to control; type: functional, Mesocricetus auratus; parameters: scale not given: the % may be the effect or the level left
[5] = tested on: Syrian golden hamster; assay: Lipid lowering effect on high-fat diet-fed golden hamster assessed as decrease in serum LDL-C level at 100 mg/kg, po qd administered via gavage measured after 4 weeks relative to control; type: functional, Mesocricetus auratus; parameters: scale not given: the % may be the effect or the level left
[6] = tested on: Syrian golden hamster; assay: Lipid lowering effect on high-fat diet-fed golden hamster assessed as decrease in serum LDL-C level at 200 mg/kg, po qd administered via gavage measured after 4 weeks relative to control; type: functional, Mesocricetus auratus; parameters: scale not given: the % may be the effect or the level left
[7] = tested on: Syrian golden hamster; assay: Lipid lowering effect on high-fat diet-fed golden hamster assessed as decrease in TG level in liver at 100 to 200 mg/kg, po qd administered via gavage measured after 4 weeks; type: functional, organism-based; conditions: Mesocricetus auratus, dose 100-200 mg/kg
[8] = tested on: Syrian golden hamster; assay: Effect on liver weight in high-fat diet-fed golden hamster at 50 to 200 mg/kg, po qd administered via gavage measured after 4 weeks; type: functional, organism-based; conditions: Mesocricetus auratus, dose 50-200 mg/kg
[9] = tested on: Rhesus monkey; assay: Lipid lowering effect in Rhesus monkey assessed as decrease in serum LDL-C level at 35 mg/kg, NG qd measured after 7 days; type: functional, organism-based; conditions: Macaca mulatta, time 7.0 day
[10] = tested on: Rhesus monkey; assay: Lipid lowering effect in Rhesus monkey assessed as decrease in blood LDL-C level at 35 mg/kg, NG qd treated for 35 days followed by drug washout for 14 days relative to control; type: functional, Macaca mulatta; parameters: scale not given: the % may be the effect or the level left; conditions: time 35 day
[11] = tested on: Erythrocyte; assay: In vivo induction of AMPK phosphorylation in erythrocytes of human at 2000 mg measured after 5 to 12 hrs by ELISA; type: functional, organism-based; conditions: time 5-12 hrs
[12] = tested on: Mus musculus; assay: Downregulation of Mogat1 mRNA level in liver of high-fat diet-fed C57BL/6 mouse model at 200 mg/kg, po for 4 weeks by GO analysis; type: functional, organism-based
[13] = tested on: Mus musculus; assay: Downregulation of Aacas mRNA level in liver of high-fat diet-fed C57BL/6 mouse model at 200 mg/kg, po for 4 weeks by GO analysis; type: functional, organism-based
[14] = tested on: Mus musculus; assay: Downregulation of Pparg mRNA level in liver of high-fat diet-fed C57BL/6 mouse model at 200 mg/kg, po for 4 weeks by GO analysis; type: functional, organism-based
[15] = tested on: Mus musculus; assay: Downregulation of Mvd mRNA level in liver of high-fat diet-fed C57BL/6 mouse model at 200 mg/kg, po for 4 weeks by GO analysis; type: functional, organism-based
[16] = tested on: Mus musculus; assay: Effect on Syvn1 mRNA level in liver of diet-induced obese C57BL/6 mouse model harboring AMPKalpha LS-/- at 200 mg/kg, po for 4 weeks by GO analysis; type: functional, organism-based
[17] = tested on: Mus musculus; assay: Effect on Ccr2 mRNA level in liver of diet-induced obese C57BL/6 mouse model harboring AMPKalpha LS-/- at 200 mg/kg, po for 4 weeks by GO analysis; type: functional, organism-based
[18] = tested on: Mus musculus; assay: Effect on Pcsk9 mRNA level in liver of diet-induced obese C57BL/6 mouse model harboring AMPKalpha LS-/- at 200 mg/kg, po for 4 weeks by GO analysis; type: functional, organism-based
[19] = tested on: Mus musculus; assay: Effect on Mvd mRNA level in liver of diet-induced obese C57BL/6 mouse model harboring AMPKalpha LS-/- at 200 mg/kg, po for 4 weeks by GO analysis; type: functional, organism-based
[20] = tested on: Mus musculus; assay: Effect on Aacas mRNA level in liver of diet-induced obese C57BL/6 mouse model harboring AMPKalpha LS-/- at 200 mg/kg, po for 4 weeks by GO analysis; type: functional, organism-based
[21] = tested on: Mus musculus; assay: Effect on Sdf2l1 mRNA level in liver of diet-induced obese C57BL/6 mouse model harboring AMPKalpha LS-/- at 200 mg/kg, po for 4 weeks by GO analysis; type: functional, organism-based
[22] = tested on: Mus musculus; assay: Effect on Gadd45a mRNA level in liver of diet-induced obese C57BL/6 mouse model harboring AMPKalpha LS-/- at 200 mg/kg, po for 4 weeks by GO analysis; type: functional, organism-based
[23] = Cmax in female Rhesus monkey at 70 mg/kg, po or 7 mg/kg, iv measured for 36 hrs by LC-tandem MS analysis; type: ADME, organism-based, Macaca mulatta; conditions: in vivo
[24] = Tmax in female Rhesus monkey at 70 mg/kg, po or 7 mg/kg, iv measured for 36 hrs by LC-tandem MS analysis; type: ADME, organism-based, Macaca mulatta; conditions: in vivo
[25] = Half life in female Rhesus monkey at 70 mg/kg, po or 7 mg/kg, iv measured for 36 hrs by LC-tandem MS analysis; type: ADME, organism-based, Macaca mulatta; conditions: in vivo
[26] = AUC (0 to t) in male Rhesus monkey at 70 mg/kg, po or 7 mg/kg, iv measured for 36 hrs by LC-tandem MS analysis; type: ADME, organism-based, Macaca mulatta; conditions: in vivo
[27] = Tmax in male Rhesus monkey at 70 mg/kg, po or 7 mg/kg, iv measured for 36 hrs by LC-tandem MS analysis; type: ADME, organism-based, Macaca mulatta; conditions: in vivo
[28] = Half life in male Rhesus monkey at 70 mg/kg, po or 7 mg/kg, iv measured for 36 hrs by LC-tandem MS analysis; type: ADME, organism-based, Macaca mulatta; conditions: in vivo
[29] = Apparent permeability across apical to basal side in human Caco-2 cells at 21 uM incubated for 2 hrs by LC-MS/MS analysis; type: ADME, cell-based
[30] = Efflux ratio of apparent permeability across basal to apical side over apical to basal side in human Caco-2 cells at 2 uM incubated for 2 hrs by LC-MS/MS analysis; type: ADME, cell-based
[31] = Stability in human Caco-2 cells assessed as compound remaining at 10 ug/ml measured after 1 hr by LC-MS/MS analysis; type: ADME, cell-based; conditions: at 10 µg/mL, read-out: Stability
[32] = Stability in human liver microsomes assessed as drug metabolism at 1 uM measured after 5 mins in presence of NADPH by LC-MS/MS analysis; type: ADME, Microsome; conditions: read-out: Drug metabolism
[33] = Stability in human liver microsomes assessed as hepatic clearance at 1 uM measured for 60 mins in presence of NADPH by LC-MS/MS analysis; type: ADME, Microsome
[34] = target: Voltage-gated inwardly rectifying potassium channel KCNH2 (Homo sapiens, UniProt Q12809); assay: Inhibition of hERG; type: toxicity
[35] = Acute toxicity in golden hamster assessed as animal survival at 20 g/Kg, po measured for 14 days; type: organism-based, Mesocricetus auratus; conditions: in vivo, 20000 mg/kg, 336 h, time 14 day
[36] = Acute toxicity in golden hamster assessed as intense toxic response at 20 g/Kg, po measured for 14 days; type: organism-based, Mesocricetus auratus; conditions: in vivo, 20000 mg/kg, 336 h, time 14 day

Sequence of AMP-activated protein kinase (AMPK) alpha-1/beta-1/gamma-1 (Homo sapiens) (P54619 whole entry): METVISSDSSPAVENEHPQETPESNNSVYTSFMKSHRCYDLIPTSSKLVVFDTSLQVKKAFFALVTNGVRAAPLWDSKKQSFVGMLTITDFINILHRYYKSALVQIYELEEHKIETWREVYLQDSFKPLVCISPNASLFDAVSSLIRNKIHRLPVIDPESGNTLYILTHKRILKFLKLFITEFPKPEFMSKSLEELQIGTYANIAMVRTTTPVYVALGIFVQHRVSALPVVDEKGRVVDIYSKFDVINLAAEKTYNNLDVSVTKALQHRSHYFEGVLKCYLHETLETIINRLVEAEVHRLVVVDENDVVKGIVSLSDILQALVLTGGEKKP
Sequence of AMP-activated protein kinase (AMPK) alpha-1/beta-1/gamma-1 (Homo sapiens) (Q13131 whole entry partner): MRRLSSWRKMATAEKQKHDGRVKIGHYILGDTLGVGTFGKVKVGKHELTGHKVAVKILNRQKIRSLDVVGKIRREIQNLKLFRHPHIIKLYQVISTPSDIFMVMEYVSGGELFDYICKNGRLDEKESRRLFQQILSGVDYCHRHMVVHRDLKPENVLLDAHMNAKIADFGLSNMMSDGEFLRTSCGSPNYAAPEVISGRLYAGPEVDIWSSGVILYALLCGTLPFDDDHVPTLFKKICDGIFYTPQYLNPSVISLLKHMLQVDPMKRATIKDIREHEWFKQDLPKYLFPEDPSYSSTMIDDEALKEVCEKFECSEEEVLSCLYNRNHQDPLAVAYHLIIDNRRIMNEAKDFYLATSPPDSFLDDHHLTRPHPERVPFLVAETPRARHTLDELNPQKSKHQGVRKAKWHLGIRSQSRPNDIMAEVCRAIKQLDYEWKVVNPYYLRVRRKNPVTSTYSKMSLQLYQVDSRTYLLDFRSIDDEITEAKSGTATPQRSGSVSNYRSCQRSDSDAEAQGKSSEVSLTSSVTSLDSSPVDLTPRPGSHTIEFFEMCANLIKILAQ
Sequence of AMP-activated protein kinase (AMPK) alpha-1/beta-1/gamma-1 (Homo sapiens) (Q9Y478 2-270 partner limits assumed): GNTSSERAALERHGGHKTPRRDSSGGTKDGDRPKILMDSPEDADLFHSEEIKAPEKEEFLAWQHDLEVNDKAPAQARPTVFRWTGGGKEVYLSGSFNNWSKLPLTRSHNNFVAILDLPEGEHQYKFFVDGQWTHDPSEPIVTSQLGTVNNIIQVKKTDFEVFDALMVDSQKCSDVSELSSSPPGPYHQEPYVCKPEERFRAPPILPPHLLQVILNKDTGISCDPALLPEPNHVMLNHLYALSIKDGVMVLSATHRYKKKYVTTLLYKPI
Sequence of Voltage-gated inwardly rectifying potassium channel KCNH2 (Q12809 whole entry): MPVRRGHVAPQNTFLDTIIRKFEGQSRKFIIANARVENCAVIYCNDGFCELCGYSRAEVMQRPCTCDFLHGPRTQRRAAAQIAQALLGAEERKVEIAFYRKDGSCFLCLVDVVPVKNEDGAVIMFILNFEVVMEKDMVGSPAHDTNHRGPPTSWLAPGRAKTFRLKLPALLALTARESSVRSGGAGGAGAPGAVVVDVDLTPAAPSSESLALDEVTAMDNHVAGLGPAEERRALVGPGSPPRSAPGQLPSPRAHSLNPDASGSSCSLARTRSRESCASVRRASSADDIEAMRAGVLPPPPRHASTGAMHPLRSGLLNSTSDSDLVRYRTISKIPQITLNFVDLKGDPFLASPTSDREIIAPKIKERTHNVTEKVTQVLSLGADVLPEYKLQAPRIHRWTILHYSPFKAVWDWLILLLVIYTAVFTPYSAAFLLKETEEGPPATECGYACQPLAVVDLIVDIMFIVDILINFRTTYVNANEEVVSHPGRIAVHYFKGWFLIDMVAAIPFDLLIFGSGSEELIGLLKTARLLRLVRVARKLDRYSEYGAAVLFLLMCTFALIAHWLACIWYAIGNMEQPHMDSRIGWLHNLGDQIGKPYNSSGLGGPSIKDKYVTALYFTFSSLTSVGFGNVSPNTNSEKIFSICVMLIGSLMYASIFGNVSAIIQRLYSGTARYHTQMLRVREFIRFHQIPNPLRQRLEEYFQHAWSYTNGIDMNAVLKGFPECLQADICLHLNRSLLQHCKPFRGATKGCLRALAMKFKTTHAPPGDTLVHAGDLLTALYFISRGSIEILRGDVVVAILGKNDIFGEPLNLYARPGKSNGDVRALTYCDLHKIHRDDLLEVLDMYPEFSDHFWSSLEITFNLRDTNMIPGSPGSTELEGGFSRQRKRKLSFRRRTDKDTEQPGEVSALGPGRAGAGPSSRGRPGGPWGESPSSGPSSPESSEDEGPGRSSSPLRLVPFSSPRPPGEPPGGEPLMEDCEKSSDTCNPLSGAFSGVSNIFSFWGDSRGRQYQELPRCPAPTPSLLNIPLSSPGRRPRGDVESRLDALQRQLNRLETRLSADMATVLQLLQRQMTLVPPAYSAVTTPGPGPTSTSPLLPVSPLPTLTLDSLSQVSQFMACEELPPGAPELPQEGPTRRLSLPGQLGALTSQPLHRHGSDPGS

In the case of `CC(=O)OC[C@H]1O[C@@H](n2cnc3c(Nc4cccc(O)c4)ncnc32)[C@H](OC(C)=O)[C@@H]1OC(C)=O`, the Activity [1] is reported as “Active”, the Activity [2] is reported as 22.2% and the Activity [3] is reported as 32.6%. The Activity [4] was 24.8%, the Activity [5] was 36.2% and the Activity [6] was 42%. The Activity [7] was “Active”, the Activity [8] was “inactive” and the Activity [9] was “Active”. For the same compound, the Activity [10] was 11.93%, the Activity [11] was “Active” and the Activity [12] was “Active”. For the same compound, the Activity [13] was “Active”, the Activity [14] was “Active” and the Activity [15] was “Active”. For the same compound, the Activity [16] was “inactive”, the Activity [17] was “inactive” and the Activity [18] was “inactive”. The Activity [19] was “inactive”, the Activity [20] was “inactive” and the Activity [21] was “inactive”. The Activity [22] was “inactive”, the Cmax [23] was 25.9 ng/mL and the Tmax [24] was 2.25 h. The half-life [25] was 4.15 h, the AUC(0-t) at 36 h [26] was 109 ng·h/mL and the Tmax [27] was 1.5 h. It also gave a half-life [28] of 5.4 h, a Papp A→B at 2 h, 21 µM [29] of 8 ×10⁻⁶ cm/s and an efflux ratio at 2 h, 2 µM [30] of 2.1. It also gave a remaining at 1 h, 10 ug/ml [31] of 77%, a metabolised at 5 min, 1 µM [32] of over 80% and a CLhep predicted at 1 µM [33] of 19.9 mL/min/kg. For the same compound, the IC50 [34] was over 30 µM, the Activity [35] was “Non-Toxic” and the Activity [36] was “Non-Toxic”.
